Experimental data reported in patent US8063225B2, “Tricyclic compound derivatives useful in the treatment of neoplastic diseases, inflammatory disorders and immunomodulatory disorders” (Chembridge Corporation, priority 2006, dated 2011).

What was measured:
[1] = system: Ba/F3; experiment: Cell proliferation inhibition, Cell Titer-Glo, Ba/F3; assay type: cell-based; settings: Mus musculus, BaF3; cell proliferation assay, Ba/F3 cells
Description: (§1) IGF1R and other tyrosine kinase inhibitors can inhibit the proliferation of certain cancer cell lines indicating their possible therapeutic utility for treating the corresponding cancer types. Cancer cell lines of interest and control normal lines, including CHO, HEK293, BA/F3, COLO205, PC3, DU145, MCF7, Panc1, ACHN, Hep G2, H460, K562, TT, U87-MG, CAOV-3, SK-MEL5, Karpas 299 and human multiple myeloma cell lines H929, MM1s, MM1r, UTMC2, CPM2, KMS11, My5, KMS12PE, My7, JJN3, KMS18, U266, SKMM2, RPMI-8226 are plated in white, clear-bottomed 384-well cell culture plates at 2500-5000 cells per well and supplied with dilutions of tested compounds After a desired period of time (typically 3 days), the number of viable cells is quantitated by using Cell Titer-Glo Luminescent Cell Viability Assay (Promega), a cell proliferation assay system based on detection of total amount of ATP present as a measure of cell metabolic activity. The plated cells are mixed with the Cell Titer-Glo developing reagent and counted in a luminescence multiwell plate reader according to the standard manufacturer's protocol to generate IC50 curves for cell proliferation inhibition. Results are typically reported as percent of growth (% viability =(OD72h(compound)−ODday0))/(OD72h(no compound)−ODday0). Alternatively, viable cells are quantitated by using the conventional colorimetric MTT assay. The MTT assay is based on the cleavage of the yellow tetrazolium salt MTT to purple formazan crystal by metabolic active cells. The formazan is then solubilized, and the concentration determined by optical density at 570 nm. The cells plated and incubated with a compound as described above are supplemented with the solution of MTT and incubated for 2-3 hours. The growth medium is removed and dimethyl sulfoxide is added into each well to dissolve the formazan. The absorbance is measured on an ELISA plate reader with a test wavelength of 570 nm and a background subtraction wavelength of 630 nm to obtain sample signal (OD570-OD630). […] The results are reported in terms of IC50 value for a particular compound and a cell line in the standard 3-day proliferation assay using Cell Titer-Glo. […] The results are reported in terms of IC50 value for a particular compound and a cell line in the standard 3-day proliferation assay using MTT assay.

[2] = molecular target: T1, InsR (Homo sapiens, UniProt P06213); experiment: Tyrosine kinase assay (Kinase-Glo or AlphaScreen), InsR; settings: biochemical tyrosine kinase assay
T1 construct: 6×His- or GST-tagged kinase domain fragments of the corresponding RTKs expressed in baculovirus system; host or cells: baculovirus system
T1 sequence (P06213 1023-1298 limits assumed, species assumed): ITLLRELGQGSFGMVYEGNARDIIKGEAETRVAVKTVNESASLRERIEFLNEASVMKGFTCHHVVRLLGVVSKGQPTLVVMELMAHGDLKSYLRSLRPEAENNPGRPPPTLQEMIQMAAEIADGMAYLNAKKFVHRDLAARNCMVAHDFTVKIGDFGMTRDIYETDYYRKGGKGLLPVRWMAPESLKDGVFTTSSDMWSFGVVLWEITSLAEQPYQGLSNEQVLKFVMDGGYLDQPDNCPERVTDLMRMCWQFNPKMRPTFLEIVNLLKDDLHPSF
Experimental: (§2) To determine inhibition of several tyrosine kinases, such as IGF1R, InsR, Alk, TrkA and Jak2, kinase assays are conducted using either Kinase-Glo (Promega) or AlphaScreen (PerkinElmer) kinase assay platforms. The Kinase-Glo Luminescent Kinase Assay is a homogeneous method for measuring kinase activity by determining the amount of ATP remaining after a kinase reaction. The luminescent signal is proportional to the amount of ATP and inversely proportional to the amount of kinase activity. Tyrosine kinase PT66 AlphaScreen Assay is a high-sensitivity homogeneous, anti-phosphotyrosine antibody-mediated luminescent proximity method measuring, incorporation of phosphate in synthetic poly(Glu-Tyr) substrate. The kinase preparations used consist of purified recombinant, 6×His- or GST-tagged kinase domain fragments of the corresponding RTKs expressed in baculovirus system.
(§3) The IGF1R tyrosine kinase is assayed in Kinase-Glo ATP depletion assay using the synthetic polymer poly(Glu-Tyr, 4:1) (Sigma Chemicals) as a phosphoacceptor substrate. Each reaction mixture consists of a total volume of 10 μl and contains 40 ng of the enzyme, 5 μg of poly(Glu-Tyr), 10 μM of ATP and variable concentrations of test compounds. The mixtures also contain 50 mM Tris-HCl, pH 7.5; 5 mM MgCl2; 5 mM MnCl2; 2 mM DTT and 0.01% Tween 20. The reaction mixtures are incubated at 37° C. for 60 minutes and residual concentration of ATP in the mixture is determined by adding luciferase-containing Kinase-Glo (Promega) development reagent and counting luminescence levels using Fusion Universal Microplate Analyzer (PerkinElmer). Tested compounds are dissolved in dimethyl sulfoxide to a stock concentration of 10 mM and are typically evaluated in the assay at eight concentrations in 1 nM to 20 μM range, each in quadruplicate. […] IC50 values are derived by non-linear regression analysis using Prism 3.0 software (Graphpad Software). Other tyrosine kinases are assayed according to the same protocol after titrating amount of the enzyme to provide optimal signal-to-noise ratio and no more than 30% of total ATP consumption in the reaction conditions used.
(§4) The IGF1R tyrosine kinase is assayed in Phosphotyrosine (PT66 or PT 100) AlphaScreen chemiluminescent assay (PerkinElmer) according to the manufacturerer's recommendations. Each kinase reaction mixture consists of a total volume of 15 μl and contains 0.1-1 ng of the enzyme, 7 ng of biotinylated poly(Glu-Tyr) (Cis-Bio), 10 μM of ATP and variable concentrations of test compounds. The mixtures also contain 50 mM Tris-HCl, pH 7.5; 5 mM MgCl2; 5 mM MnCl2; 2 mM DTT and 0.01% Tween 20. The reaction mixtures are incubated at room temperature for 30 minutes. Ten (10) μl of the mixture of […] and donor beads (as supplied by the manufacturer) is then added to the reaction and the incubation is continued for an additional 60 minutes.

[3] = system: Karpas-299; experiment: Cell proliferation inhibition, Cell Titer-Glo, Karpas-299; assay type: cell-based; settings: Homo sapiens; cell proliferation assay, Karpas-299 cells
Description: as §1

[4] = system: K562; experiment: Cell proliferation inhibition, Cell Titer-Glo, K562; assay type: cell-based; settings: Homo sapiens; cell proliferation assay, K562 cells
Description: as §1

[5] = molecular target: T2, Alk (Homo sapiens, UniProt Q9UM73); experiment: Tyrosine kinase assay (Kinase-Glo or AlphaScreen), Alk; settings: biochemical tyrosine kinase assay
T2 construct: 6×His- or GST-tagged kinase domain fragments of the corresponding RTKs expressed in baculovirus system; host or cells: baculovirus system
T2 sequence (Q9UM73 1116-1392 limits assumed, species assumed): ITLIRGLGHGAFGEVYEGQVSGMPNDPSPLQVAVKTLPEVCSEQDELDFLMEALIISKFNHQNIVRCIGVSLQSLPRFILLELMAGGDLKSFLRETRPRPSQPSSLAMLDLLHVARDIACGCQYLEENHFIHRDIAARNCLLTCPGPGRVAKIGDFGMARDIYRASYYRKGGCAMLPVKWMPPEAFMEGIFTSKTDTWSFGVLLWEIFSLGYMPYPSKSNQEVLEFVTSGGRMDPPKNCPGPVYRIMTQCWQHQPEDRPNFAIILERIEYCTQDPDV
Experimental: as §2, §3, §4

[6] = molecular target: T3, Jak2 (Homo sapiens, UniProt O60674); experiment: Tyrosine kinase assay (Kinase-Glo or AlphaScreen), Jak2; settings: biochemical tyrosine kinase assay
T3 construct: 6×His- or GST-tagged kinase domain fragments of the corresponding RTKs expressed in baculovirus system; host or cells: baculovirus system
T3 sequence (O60674 849-1124 limits assumed, species assumed): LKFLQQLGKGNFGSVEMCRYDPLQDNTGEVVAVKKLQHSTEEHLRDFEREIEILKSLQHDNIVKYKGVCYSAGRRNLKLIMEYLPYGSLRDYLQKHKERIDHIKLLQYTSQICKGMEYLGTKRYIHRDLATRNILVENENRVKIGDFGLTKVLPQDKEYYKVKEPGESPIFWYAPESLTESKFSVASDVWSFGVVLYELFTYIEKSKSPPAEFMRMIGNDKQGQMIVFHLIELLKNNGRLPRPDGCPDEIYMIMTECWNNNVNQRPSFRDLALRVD
Experimental: as §2, §3, §4

[7] = molecular target: T4, IGF1R tyrosine kinase (Homo sapiens, UniProt P08069); experiment: IGF1R tyrosine kinase assay (Kinase-Glo ATP depletion or PT66/PT100 AlphaScreen); settings: biochemical tyrosine kinase assay
T4 construct: 6×His- or GST-tagged kinase domain fragments of the corresponding RTKs expressed in baculovirus system; host or cells: baculovirus system
T4 sequence (P08069 999-1274 limits assumed): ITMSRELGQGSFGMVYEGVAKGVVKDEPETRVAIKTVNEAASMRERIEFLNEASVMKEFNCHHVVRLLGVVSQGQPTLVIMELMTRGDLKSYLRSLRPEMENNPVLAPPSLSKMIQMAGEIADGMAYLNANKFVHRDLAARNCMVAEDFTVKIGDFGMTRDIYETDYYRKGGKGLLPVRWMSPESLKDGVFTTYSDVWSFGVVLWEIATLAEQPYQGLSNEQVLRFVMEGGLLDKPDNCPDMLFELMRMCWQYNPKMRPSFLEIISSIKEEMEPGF
Experimental: as §2, §3, §4

| SMILES | IC50 [1] | IC50 [2] | IC50 [3] | IC50 [4] | IC50 [5] | IC50 [6] | IC50 [7] |
| --- | --- | --- | --- | --- | --- | --- | --- |
| Cc1ccc(OCC(O)CNc2cc[nH]c(=O)c2-c2nc3cc4c(cc3[nH]2)C(=O)N(C2CCN(C)CC2)C4=O)cc1C (stereo not shown) [compound 104] | > 15 µM | < 0.5 µM | > 15 µM | > 15 µM | 5 to 15 µM | 5 to 15 µM | 0.5 to 5 µM |
| Cc1ccc(OCC(O)CNc2ccnc(O)c2-c2nc3cc4c(cc3[nH]2)C(=O)N(CC(C)(C)CN(C)C)C4=O)c(C)c1 (stereo not shown) [compound 62] | 5 to 15 µM | 0.5 to 5 µM | 5 to 15 µM | 0.5 to 5 µM | 5 to 15 µM | 5 to 15 µM | < 0.5 µM |
| Cc1ccc(Cl)cc1OC[C@H](O)CNc1ccnc(O)c1-c1nc2cc3c(cc2[nH]1)C(=O)N(C1CCN(C)CC1)C3=O [compound 55] | 0.5 to 5 µM | 0.5 to 5 µM | 0.5 to 5 µM | 0.5 to 5 µM | 0.5 to 5 µM | 0.5 to 5 µM | < 0.5 µM |
| CC(Nc1cc[nH]c(=O)c1-c1nc2cc3c(cc2[nH]1)C(=O)N(C1CCN(C)CC1)C3=O)C1COc2ccccc2O1 (stereo not shown) [compound 40] | 0.5 to 5 µM | 5 to 15 µM | 5 to 15 µM | 5 to 15 µM | 5 to 15 µM | 0.5 to 5 µM | 5 to 15 µM |
| CN1CCC(N2C(=O)c3cc4nc(-c5c(NCC(O)COc6ccc(Cl)cc6)cc[nH]c5=O)[nH]c4cc3C2=O)CC1 (stereo not shown) [compound 39] | 0.5 to 5 µM | 0.5 to 5 µM | 0.5 to 5 µM | 0.5 to 5 µM | 0.5 to 5 µM | 0.5 to 5 µM | 0.5 to 5 µM |
| Cc1ccc(OCC(O)CNc2ccnc(O)c2-c2nc3cc4c(cc3[nH]2)C(=O)N(CCCn2cccn2)C4=O)c(C)c1 (stereo not shown) [compound 63] | > 15 µM | > 15 µM | > 15 µM | > 15 µM | 0.5 to 5 µM | > 15 µM | > 15 µM |
| CN(C)CC(C)(C)CN1C(=O)c2cc3nc(-c4c(NC[C@@H](O)c5cccc(Cl)c5)ccnc4O)[nH]c3cc2C1=O [compound 60] | > 15 µM | 0.5 to 5 µM | > 15 µM | > 15 µM | 5 to 15 µM | 0.5 to 5 µM | 0.5 to 5 µM |
| CN1CCC(N2C(=O)c3cc4nc(-c5c(NC[C@@H](O)COc6ccc(F)c(Cl)c6)ccnc5O)[nH]c4cc3C2=O)CC1 [compound 74] | 0.5 to 5 µM | 0.5 to 5 µM | 0.5 to 5 µM | 0.5 to 5 µM | 5 to 15 µM | 0.5 to 5 µM | 0.5 to 5 µM |
| Cc1ccc(SC[C@H](O)CNc2cc[nH]c(=O)c2-c2nc3cc4c(cc3[nH]2)C(=O)N(C2CCN(C)CC2)C4=O)c(C)c1 [compound 79] | 5 to 15 µM | 0.5 to 5 µM | 5 to 15 µM | 0.5 to 5 µM | 0.5 to 5 µM | 0.5 to 5 µM | 0.5 to 5 µM |
| COc1ccc2c(c1)cc(C)n2C[C@H](O)CNc1ccnc(O)c1-c1nc2cc3c(cc2[nH]1)C(=O)N(C1CCN(C)CC1)C3=O [compound 100] | > 15 µM | 0.5 to 5 µM | 5 to 15 µM | 5 to 15 µM | < 0.5 µM | 0.5 to 5 µM | 0.5 to 5 µM |
| COc1cc(F)ccc1OC[C@@H](O)CNc1ccnc(O)c1-c1nc2cc3c(cc2[nH]1)C(=O)N(C1CCN(C)CC1)C3=O [compound 58] | 5 to 15 µM | 0.5 to 5 µM | 5 to 15 µM | 5 to 15 µM | 0.5 to 5 µM | 5 to 15 µM | 0.5 to 5 µM |
| O=C1c2cc3nc(-c4c(NC[C@@H](O)c5cccc(Cl)c5)ccnc4O)[nH]c3cc2C(=O)N1CCN1CCOCC1 [compound 8] | > 15 µM | 0.5 to 5 µM | > 15 µM | > 15 µM | 0.5 to 5 µM | 0.5 to 5 µM | 0.5 to 5 µM |
| Cc1ccc(OC[C@H](O)CNc2ccnc(O)c2-c2nc3cc4c(cc3[nH]2)C(=O)N([C@H]2CCCN(C)C2)C4=O)c(C)c1 [compound 103] | 0.5 to 5 µM | 5 to 15 µM | 0.5 to 5 µM | 0.5 to 5 µM | > 15 µM | 5 to 15 µM | < 0.5 µM |

Next, values leading:

| IC50 [1] | IC50 [2] | IC50 [3] | IC50 [4] | IC50 [5] | IC50 [6] | IC50 [7] | SMILES |
| --- | --- | --- | --- | --- | --- | --- | --- |
| > 15 µM | < 0.5 µM | > 15 µM | > 15 µM | < 0.5 µM | 0.5 to 5 µM | < 0.5 µM | CN1CCC(N2C(=O)c3cc4nc(-c5c(NC[C@@H](O)COc6cccc7[nH]ccc67)ccnc5O)[nH]c4cc3C2=O)CC1 [compound 101] |
| > 15 µM | 5 to 15 µM | 5 to 15 µM | > 15 µM | > 15 µM | > 15 µM | < 0.5 µM | Cc1ccc(OC[C@H](O)CNc2ccnc(O)c2-c2nc3cc4c(cc3[nH]2)C(=O)N([C@@H]2CCCN(C)C2)C4=O)c(C)c1 [compound 102] |
| > 15 µM | 5 to 15 µM | > 15 µM | > 15 µM | > 15 µM | 5 to 15 µM | 0.5 to 5 µM | CN(C)CC(C)(C)CN1C(=O)c2cc3nc(-c4c(NCC(O)COc5cccc(Cl)c5)ccnc4O)[nH]c3cc2C1=O (stereo not shown) [compound 61] |
| > 15 µM | 0.5 to 5 µM | > 15 µM | > 15 µM | 5 to 15 µM | 5 to 15 µM | 0.5 to 5 µM | Cc1ncccc1OC[C@H](O)CNc1ccnc(O)c1-c1nc2cc3c(cc2[nH]1)C(=O)N(C1CCN(C)CC1)C3=O [compound 71] |
| > 15 µM | 0.5 to 5 µM | 0.5 to 5 µM | 0.5 to 5 µM | 5 to 15 µM | 0.5 to 5 µM | 0.5 to 5 µM | CN1CCC(N2C(=O)c3cc4nc(-c5c(NC[C@@H](O)COc6cccc(C(F)(F)F)c6)ccnc5O)[nH]c4cc3C2=O)CC1 [compound 73] |
| > 15 µM | 0.5 to 5 µM | > 15 µM | > 15 µM | 0.5 to 5 µM | 0.5 to 5 µM | 0.5 to 5 µM | CN(C)CCc1ncccc1OC[C@H](O)CNc1ccnc(O)c1-c1nc2cc3c(cc2[nH]1)C(=O)N(C1CCN(C)CC1)C3=O [compound 72] |
